According to patent EP0400480A1, “A method for enhancing the cytotoxicity of anthracyclines through photoactivation” (CONSIGLIO NAZIONALE DELLE RICERCHE, priority 1989, dated 1990):

Tests used:
[1] = tested on: FRT L5 cells; experiment: Growth curve (count of vital cells) of FRT L5 cells after 2 hr incubation with or without 595 nm irradiation (Example 1); assay type: cell-based, Fisher Rat; conditions: 50 ng/ml, irradiation 595 nm 245 J/cm², curve (f) compared with non-irradiated curve (b)
Procedure: A culture of Fisher Rat Thyroid cells classified as FRT L5 was performed routinely in Petri dishes in a Ham F-12 medium modified by Coon (K.C. Biological Co.) with addition of 5% calf serum (Grand Island Biological Co.) by incubation at 37°C in an atmosphere with 5% CO₂.
For determining the growth curve a suitable number of the colture Petri dishes was trypsinized and the cells were re-suspended in growth medium in such a way as to have a cell concentration of appoximately 10⁶/ml. Suspension volumes containing a number of cells of the order of 10⁵ were poured into dishes of 60 mm diameter and covered with 3 ml culture medium, maintaining the cell suspension under stirring in order to have a uniform cell distribution in the various dishes.
The dishes were put in an incubator for 24 hrs and then incubated for 2 hrs with fresh reaction medium containing […] (5-ID).
5-iminodaunomicin was prepared in a 1.78.10⁻⁵M solution in dejonized bidistilled water and was added to the various dishes in such amounts as to have concentrations of 0,50, 200, 400 and 1000 ng/ml. Incubation of these dishes was performed in the dark while at the same time a dish prepared in the same way and having a 5-iminodaunomicin concentration of 50 ng/ml was incubated under red light radiation of 595 nm wave length. […]

[2] = tested on: FRT L5 cells; experiment: Cell survival of FRT L5 cells relative to non-irradiated culture after incubation with 595 nm irradiation (Examples 2 and 3); assay type: cell-based, Fisher Rat; conditions: 1000 ng/ml
Procedure: Following the method of Example 1, FRT L5 cells were resuspended, distributed in dishes and incubated for 72 hrs. At this point 5-ID was introduced in the dishes in an amount such as to have a concentration in the medium of 1000 ng/ml and the dishes were incubated for 2 hrs. During this period the various dishes were irradiated with red light of 595 nm with constant radiation density on the dish of an average of 34 mW/cm² for times of from 15 to 120 minutes.
Each irradiation period was selected so that its termination coincided with the incubation end.
The average dose of light administered on the dish in 120 minutes was 245 J/cm².
2, in which the percentage of cell survival refferred to a non-irradiated culture is represented as a function of the light dose in J/cm².
Example 2 was repeated, except that each dish was irradiated for only 15 minute during the 2 hr incubation with 5-ID.
Said 15 minute irradiations were started with increasing delays with respect to the start of the incubation, and precisely with delays of 0,15, 30, 45, 60, 75, 90 and 105 minutes.
The results are reported in figure 3, in which the percentage cell survival, with respect to non- irradiated cultures, is reported as a function of the delay from the irradiation start with respect to the start of the incubation with 5-ID.

Which results are given for `COc1cccc2c1C(=N)c1c(O)c3c(c(O)c1C2=O)C[C@@](O)(C(C)=O)C[C@@H]3O[C@H]1C[C@H](N)[C@H](O)[C@H](C)O1` [5-ID, 5-iminodaunomicin]?
lowering the number of vital cell [1]: one order of magnitude; lethal effect (cell survival referred to a non-irradiated culture) ([2]; 2 hr incubation, irradiation 595 nm, 34 mW/cm², short time (ca. 30 minutes)): high lethal effect; effect of incubation without irradiation ([2]; without irradiation, short time, see curve (e) of figure 1): does not have a measurable effect
